According to paper PMC4849758, “Rational Structure-Based Rescaffolding Approach to De Novo Design of Interleukin 10 (IL-10) Receptor-1 Mimetics” (PLoS ONE, 2016):
Bridge positions count the residues as written; N and C are the ends. Square brackets hold non-standard residues; d marks the D form. Peptide text beside a SMILES is read from it. * marks the point of attachment. Trp(5-OH) = N[C@@H](Cc1c[nH]c2ccc(O)cc12)C(=O)O; Butanoyl(4-guanidino) = N=C(N)NCCCC(=O)*

What was measured:
mIL-10C149Y [1] = biological target: T1, mIL-10C149Y (Mus musculus, UniProt P18893, C167Y); experiment: Isothermal titration calorimetry (ITC); assay type: binding, murine; details: for TΔS, entropic component of binding / ΔH, enthalpic term of binding: ITC; for TΔS, entropic component of binding / ΔH, enthalpic term of binding / Kd: 298 K; for Kd: inferred from ITC thermodynamic data, single site model, variable stoichiometry; for fold increase of binding affinity with respect to M2-M4 / fold increase of binding with respect to M1: ratio of Kd values; for fold increase of binding with respect to M1: M1 Kd from thermal denaturation
T1 construct: His8 tag (LEHHHHHHHH) from pET41b(+) (C); made in house
T1 sequence (P18893 19-178 C167Y): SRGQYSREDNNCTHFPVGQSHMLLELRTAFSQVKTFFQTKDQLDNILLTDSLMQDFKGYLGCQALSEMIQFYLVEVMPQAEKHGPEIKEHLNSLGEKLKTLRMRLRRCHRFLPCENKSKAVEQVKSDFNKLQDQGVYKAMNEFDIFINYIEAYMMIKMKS
From the text: Further ligand optimization was accomplished by the introduction of an additional N-terminal H-bond acceptor such as Gln or Glu (M5, M6), which would allow interactions with the cationic side chains of IL-10R27 and IL-10K34 (helix A) or with IL-10N148 (helix F’) (Fig 2A). Favourable energies obtained for the interaction of IL-10 with an aliphatic carboxylate chemical probe supported this rationale. Furthermore, residues IL-10L46 (loop AB) and IL-10I145 (helix F’) would additionally contribute with van der Waals interactions with the aliphatic moieties of the side chains of the residues introduced at the N-teminus. […] Furthermore, these measurements supported the expected stoichiometry 2:1 mimetic:dimer-protein binding ratio as previously observed for the IL-10R1/IL-10 complex.
The final constant heat signals were subtracted to correct for the solution enthalpy of the respective IL-10R1 mimetics. The resulting integrated heat curve was analyzed with the associated software Origin 9 [74] allowing a variable stoichiometry but restriction to a single Kd value (identical binding sites of the dimeric protein).

mIL-10C149Y [2] = biological target: T1, mIL-10C149Y; experiment: Thermal denaturation by circular dichroism (CD), Kd estimate from two-state unfolding model; assay type: binding, murine; details: 4.5 μM mimetic; for increase of native protein structure in presence of mimetic, percentage of the total change in the CD signal: at 332 K, average CD signal 215-230 nm, 2 μM mIL-10C149Y; for Kd: calculated from thermal denaturation CD data, 2 μM mIL-10C149Y dimer, two-state unfolding model, lower affinity limit reported
Experimental: M1 was chemically synthesized, and its experimental binding affinity towards IL-10 was assessed by thermal stability measurements using circular dichroism (CD) and fluorescence (see materials and methods). For these studies, we used the readily available murine IL-10 mutant mIL-10C149Y in which Cys149 was replaced by the corresponding Tyr residue of the human protein, as it was previously shown to enhance protein refolding yield. Furthermore, this tyrosine would enhance the sensitivity of tryptophan fluorescence measurements (i.e. as stated above, it can act as energy donor for the tryptophan residue introduced as label in the mimetics).
Complex formation between M1 and mIL-10C149Y was determined by thermal denaturation using CD and the well-known negative ellipticity of IL-10 between 200 to 300 nm. […] The obtained curves shift to higher temperatures in the presence of M1. The shift is due to a lower degree of unfolded protein at any temperature in the presence of mimetic M1 as compared to the denaturation of mIL-10C149Y alone. […] At 332 K, the presence of M1 increased the native protein structure by 8%.
CD spectra were recorded with a J-815 instrument (Jasco, Gross-Umstadt, Germany) from 195 to 300 nm in 1-cm cuvettes at concentrations of 2 μM of mIL-10C149Y (dimer) and 4.5 μM of mimetics M1-M4. Ellipticity θ was recorded in millidegrees. Samples were heated from 298 to 364 K at a rate of 2 K/min under constant stirring to determine stabilization of IL-10/mimetic complexes. Estimates of binding affinities were derived with the assumption of a two state unfolding of mIL-10C149Y. The mimetics were assumed to stabilize exclusively the folded state. These simplifications allow applying equilibrium thermodynamics, such that the fraction Sn of the native state of mIL-10C149Y can be approximated: Sn = (1+ [M] Kd^-1 +Ku)^-1. Kd is the estimated dissociation constant of the mimetic, [M] its concentration. Ku is the temperature-dependent unfolding equilibrium constant (Ku = [denatured]/[native]) as measured by the unfolding curve of mIL-10C149Y in the absence of mimetics. […] In this case, the measured CD curves would be actually compatible with much higher mimetic affinities, because a local stabilization of the mimetic binding epitope on mIL-10C149Y is not counted as binding in the applied two state model but it is very likely to occur. For consistency, we have not explored the higher affinity limit that would still be compatible with the data. Instead, we report only the lower affinity range that complies with the assumptions, in order to prevent bias for overestimated mimetic affinities. […] Absolute thermodynamic parameters could only be obtained by isothermal titration calorimetry with the most promising mimetics. This of course required the initial confirmation of the binding of the precursor molecules which was accomplished by CD and Fluorescence Spectroscopy. Fluorescence emission at 360 nm was monitored simultaneously with the CD scan (the measuring beam served as the excitation light) using a second monochromator and photomultiplier in 90° geometry with respect to the CD absorption path. Thereby, temperature-dependent excitation spectra of the tryptophan at position two in the synthetic IL-10R1 mimetics were additionally obtained with the CD data acquisition.

Compound | TΔS, entropic component of binding (mIL-10C149Y [1]) [kcal/mol] | ΔH, enthalpic term of binding (mIL-10C149Y [1]) [kcal/mol] | Kd (mIL-10C149Y [1]) [µM] | fold increase of binding affinity with respect to M2-M4 (mIL-10C149Y [1]) | fold increase of binding with respect to M1 (mIL-10C149Y [1]) | increase of native protein structure in presence of mimetic, percentage of the total change in the CD signal (mIL-10C149Y [2]) [%] | Kd (mIL-10C149Y [2]) [µM]
CC(C)[C@@H]1NC(=O)[C@H](CCCCN)NC(=O)[C@H](CCCNC(=N)N)NC(=O)[C@@H](NC(=O)[C@@H]2CC(=O)NCCCC[C@H](NC(=O)CCCNC(=N)N)C(=O)N[C@@H](Cc3c[nH]c4ccc(O)cc34)C(=O)N[C@@H](CCCNC(=N)N)C(=O)N[C@@H](Cc3ccc(O)cc3)C(=O)N2)CCCCNC(=O)C[C@@H](C(=O)N[C@@H](CCCNC(=N)N)C(=O)N[C@@H](C)C(N)=O)NC1=O [M3] ({Butanoyl(4-guanidino)}-K[Trp(5-OH)]RYDKRKVDRA-NH2; lactam 1-5, 6-10) |  |  |  |  |  | 12 | 6.7
CC(C)[C@@H]1NC(=O)[C@H](CCCCN)NC(=O)[C@H](CCCNC(=N)N)NC(=O)[C@@H](NC(=O)[C@@H]2CC(=O)NCCCC[C@H](NC(=O)CCCNC(=N)N)C(=O)N[C@@H](Cc3c[nH]c4ccccc34)C(=O)N[C@@H](CCCNC(=N)N)C(=O)N[C@@H](Cc3ccc(O)cc3)C(=O)N2)CCCCNC(=O)C[C@@H](C(=O)N[C@@H](CCCNC(=N)N)C(=O)N[C@@H](C)C(N)=O)NC1=O [M2] ({Butanoyl(4-guanidino)}-KWRYDKRKVDRA-NH2; lactam 1-5, 6-10) |  |  |  |  |  | 16 | 5
CC(=O)N[C@H]1CCCCNC(=O)C[C@@H](C(=O)N[C@H]2CCCCNC(=O)C[C@@H](C(=O)N[C@@H](CCCNC(=N)N)C(=O)N[C@@H](C)C(N)=O)NC(=O)[C@H](C(C)C)NC(=O)[C@H](CCCCN)NC(=O)[C@H](CCCNC(=N)N)NC2=O)NC(=O)[C@H](Cc2ccc(O)cc2)NC(=O)[C@H](CCCNC(=N)N)NC(=O)[C@H](Cc2c[nH]c3ccccc23)NC1=O [M1] (Ac-KWRYDKRKVDRA-NH2; lactam 1-5, 6-10) |  |  |  |  |  | 8 | > 30

Other lines, results leading:

TΔS, entropic component of binding (mIL-10C149Y [1]) [kcal/mol] | ΔH, enthalpic term of binding (mIL-10C149Y [1]) [kcal/mol] | Kd (mIL-10C149Y [1]) [µM] | fold increase of binding affinity with respect to M2-M4 (mIL-10C149Y [1]) | fold increase of binding with respect to M1 (mIL-10C149Y [1]) | increase of native protein structure in presence of mimetic, percentage of the total change in the CD signal (mIL-10C149Y [2]) [%] | Kd (mIL-10C149Y [2]) [µM] | Compound
9.5 | -0.5 | 0.07 ± 0.02 | more than 70 fold | more than 400 fold |  |  | CC(=O)N[C@@H](CCC(=O)O)C(=O)N[C@@H](CCCCN)C(=O)N[C@H]1CCCCNC(=O)C[C@@H](C(=O)N[C@H]2CCCCNC(=O)C[C@@H](C(=O)N[C@@H](CCCNC(=N)N)C(=O)N[C@@H](C)C(N)=O)NC(=O)[C@H](C(C)C)NC(=O)[C@H](CCCCN)NC(=O)[C@H](CCCNC(=N)N)NC2=O)NC(=O)[C@H](Cc2ccc(O)cc2)NC(=O)[C@H](CCCNC(=N)N)NC(=O)[C@H](Cc2c[nH]c3ccccc23)NC1=O [M5] (Ac-EKKWRYDKRKVDRA-NH2; lactam 3-7, 8-12)
 |  |  |  |  | 11 | 8.4 | CC(=O)N[C@@H](CCCNC(=N)N)C(=O)N[C@H]1CCCCNC(=O)C[C@@H](C(=O)N[C@H]2CCCCNC(=O)C[C@@H](C(=O)N[C@@H](CCCNC(=N)N)C(=O)N[C@@H](C)C(N)=O)NC(=O)[C@H](C(C)C)NC(=O)[C@H](CCCCN)NC(=O)[C@H](CCCNC(=N)N)NC2=O)NC(=O)[C@H](Cc2ccc(O)cc2)NC(=O)[C@H](CCCNC(=N)N)NC(=O)[C@H](Cc2c[nH]c3ccccc23)NC1=O [M4] (Ac-RKWRYDKRKVDRA-NH2; lactam 2-6, 7-11)
9.5 | -0.5 | 0.04 ± 0.02 | more than 70 fold | more than 400 fold |  |  | CC(=O)N[C@@H](CCC(=O)O)C(=O)N[C@@H](CCCNC(=N)N)C(=O)N[C@H]1CCCCNC(=O)C[C@@H](C(=O)N[C@H]2CCCCNC(=O)C[C@@H](C(=O)N[C@@H](CCCNC(=N)N)C(=O)N[C@@H](C)C(N)=O)NC(=O)[C@H](C(C)C)NC(=O)[C@H](CCCCN)NC(=O)[C@H](CCCNC(=N)N)NC2=O)NC(=O)[C@H](Cc2ccc(O)cc2)NC(=O)[C@H](CCCNC(=N)N)NC(=O)[C@H](Cc2c[nH]c3ccccc23)NC1=O [M6] (Ac-ERKWRYDKRKVDRA-NH2; lactam 3-7, 8-12)
